Test results taken from ChEMBL document CHEMBL1697723, “A predictive ligand-based Bayesian model for human drug-induced liver injury” (Drug Metab Dispos, 2010).
Residues, ends and D or L forms follow the SMILES beside them.

System: Hepatotoxicity
Assay: Human drug-induced liver injury (DILI) modelling dataset from Ekins et al
Conditions: not given

Q: Clc1ccc(CCC(Cn2ccnc2)Sc2c(Cl)cccc2Cl)cc1.O=[N+]([O-])O (stereo not drawn) [BUTOCONAZOLE NITRATE] was tested. Which Hepatotoxicity did it give?
A: DILI negative (test set)

Q: Which Hepatotoxicity does the source give for CCOc1nc2cccc(C(=O)O)c2n1Cc1ccc(-c2ccccc2-c2nnn[nH]2)cc1 here?
A: DILI negative (test set)

Q: For Cl.O=c1n(CCCN2CCN(c3cccc(Cl)c3)CC2)nc2ccccn12 [TRAZODONE HYDROCHLORIDE], which Hepatotoxicity is on record?
A: DILI positive (training set)

Q: How did the Hepatotoxicity turn out when CADMIUM DICHLORIDE was run?
A: DILI positive (training set)

Q: How did the Hepatotoxicity turn out when COc1cc2c(cc1OC)C(=O)C(CC1CCN(Cc3ccccc3)CC1)C2 (stereo not drawn) [DONEPEZIL] was run?
A: DILI negative (training set)

Q: With CC12CC3CC(C)(C1)CC(N)(C3)C2 [MEMANTINE] as the compound, how does the Hepatotoxicity read?
A: DILI negative (training set)

Q: With Nc1ccc(O)cc1 [4-AMINOPHENOL] as the compound, how does the Hepatotoxicity read?
A: DILI negative (test set)

Q: With N[C@@H](Cc1ccc(O)c(O)c1)C(=O)O [LEVODOPA] as the compound, how does the Hepatotoxicity read?
A: DILI negative (training set)

Q: With CC1(C)C(C=C(Cl)Cl)C1C(=O)OCc1cccc(Oc2ccccc2)c1 (stereo not drawn) [PERMETHRIN] as the compound, how does the Hepatotoxicity read?
A: DILI negative (test set)

Q: Which Hepatotoxicity does the source give for C=C(C)[C@H]1Cc2c(ccc3c2O[C@@H]2COc4cc(OC)c(OC)cc4[C@@H]2C3=O)O1 [ROTENONE] here?
A: DILI positive (test set)

Q: For CC(=O)Nc1nnc(S(N)(=O)=O)s1 [ACETAZOLAMIDE], which Hepatotoxicity is on record?
A: DILI positive (training set)

Q: How did the Hepatotoxicity turn out when Cc1cc(NC(=O)C2=C(O)c3ccccc3S(=O)(=O)N2C)no1 [ISOXICAM] was run?
A: DILI negative (test set)

Q: How did the Hepatotoxicity turn out when CC(C)(Sc1cc(C(C)(C)C)c(O)c(C(C)(C)C)c1)Sc1cc(C(C)(C)C)c(O)c(C(C)(C)C)c1 [PROBUCOL] was run?
A: DILI negative (test set)

Q: How did the Hepatotoxicity turn out when O=C1CC2(CCCC2)CC(=O)N1CCCCN1CCN(c2ncccn2)CC1 [BUSPIRONE] was run?
A: DILI negative (test set)

Q: How did the Hepatotoxicity turn out when CCc1c(C)[nH]c2c1C(=O)C(CN1CCOCC1)CC2.Cl (stereo not drawn) [MOLINDONE HYDROCHLORIDE] was run?
A: DILI positive (training set)

Q: Which Hepatotoxicity does the source give for CC(=O)O[C@]1(C(C)=O)CC[C@H]2[C@@H]3C[C@H](C)C4=CC(=O)CC[C@]4(C)[C@H]3CC[C@@]21C [MEDROXYPROGESTERONE ACETATE] here?
A: DILI negative (training set)

Q: How did the Hepatotoxicity turn out when CCc1ccc(CCOc2ccc(CC3SC(=O)NC3=O)cc2)nc1 (stereo not drawn) [PIOGLITAZONE] was run?
A: DILI negative (test set)

Q: How did the Hepatotoxicity turn out when CC(C)(C)c1ccc(C(O)CCCN2CCC(C(O)(c3ccccc3)c3ccccc3)CC2)cc1 (stereo not drawn) [TERFENADINE] was run?
A: DILI negative (training set)

Q: How did the Hepatotoxicity turn out when S=C=Nc1ccccc1 [PHENYLISOTHIOCYANATE] was run?
A: DILI positive (test set)

Q: With CCC1(C)CC(=O)NC1=O (stereo not drawn) [ETHOSUXIMIDE] as the compound, how does the Hepatotoxicity read?
A: DILI positive (test set)

Q: For COc1cc(CNC(=O)CCCC/C=C/C(C)C)ccc1O [CAPSAICIN], which Hepatotoxicity is on record?
A: DILI negative (test set)

Q: Which Hepatotoxicity does the source give for Nc1ccc(C(=O)O)c(O)c1 [AMINOSALICYLIC ACID] here?
A: DILI positive (training set)

Q: O=C(COc1ccc(Cl)cc1)N1CCN(Cc2ccc3c(c2)OCO3)CC1 [FIPEXIDE] was tested. Which Hepatotoxicity did it give?
A: DILI positive (test set)

Q: For CNCCc1ccccn1.Cl.Cl [BETAHISTINE HYDROCHLORIDE], which Hepatotoxicity is on record?
A: DILI positive (training set)

Q: Which Hepatotoxicity does the source give for COC(=O)Nc1nc2ccccc2[nH]1 [CARBENDAZIM] here?
A: DILI positive (training set)

Q: For C[C@]12CC[C@@H]3c4ccc(O)cc4CC[C@H]3[C@@H]1CC[C@@H]2O[C@@H]1O[C@H](C(=O)O)[C@@H](O)[C@H](O)[C@H]1O [ESTRADIOL 17B GLUCURONIDE], which Hepatotoxicity is on record?
A: DILI positive (training set)

Q: With Cc1ccc(S(=O)(=O)NC(=O)NN2CCCCCC2)cc1 [TOLAZAMIDE] as the compound, how does the Hepatotoxicity read?
A: DILI positive (test set)

Q: With CN(N=O)C(=O)N[C@@H](C=O)[C@@H](O)[C@H](O)[C@H](O)CO [STREPTOZOCIN] as the compound, how does the Hepatotoxicity read?
A: DILI negative (test set)

Q: Which Hepatotoxicity does the source give for CN(C)CCCN1c2ccccc2Sc2ccccc21.Cl [PROMAZINE HYDROCHLORIDE] here?
A: DILI negative (training set)

Q: With Nc1nc(=O)c2c([nH]1)NCC(CNc1ccc(C(=O)N[C@@H](CCC(=O)[O-])C(=O)[O-])cc1)N2C=O.[Ca+2] (stereo partly drawn) [LEUCOVORIN CALCIUM] as the compound, how does the Hepatotoxicity read?
A: DILI negative (test set)

Q: How did the Hepatotoxicity turn out when Cl.N=C(N)NC(=O)c1nc(Cl)c(N)nc1N.O.O [AMILORIDE HYDROCHLORIDE] was run?
A: DILI negative (training set)

Q: For CC(=O)Nc1ccc(O)cc1 [ACETAMINOPHEN], which Hepatotoxicity is on record?
A: DILI positive (training set)

Q: Which Hepatotoxicity does the source give for O=C(O)c1cc(/N=N/c2ccc(S(=O)(=O)Nc3ccccn3)cc2)ccc1O [SULFASALAZINE] here?
A: DILI positive (training set)

Q: CC[N+](C)(CC)CCOC(=O)C(O)(c1ccccc1)C1CCCCC1 (stereo not drawn) [OXYPHENONIUM] was tested. Which Hepatotoxicity did it give?
A: DILI negative (training set)

Q: For CC1(C)S[C@@H]2[C@H](NC(=O)[C@H](N)c3ccccc3)C(=O)N2[C@H]1C(=O)[O-].[Na+] [AMPICILLIN SODIUM], which Hepatotoxicity is on record?
A: DILI negative (test set)

Q: For C=C[C@H]1C[N@@]2CC[C@H]1C[C@@H]2[C@@H](O)c1ccnc2ccc(OC)cc12 [QUINIDINE], which Hepatotoxicity is on record?
A: DILI positive (training set)

Q: Which Hepatotoxicity does the source give for CNC(=C[N+](=O)[O-])NCCSCc1ccc(CN(C)C)o1 [RANITIDINE] here?
A: DILI negative (training set)

Q: CN(C)[C@@H]1C(O)=C(C(N)=O)C(=O)[C@@]2(O)C(O)=C3C(=O)c4c(O)cccc4[C@@](C)(O)[C@H]3C[C@@H]12 [TETRACYCLINE] was tested. Which Hepatotoxicity did it give?
A: DILI positive (training set)

Q: How did the Hepatotoxicity turn out when O=C(Cc1cccs1)N[C@@H]1C(=O)N2C(C(=O)[O-])=C(C[n+]3ccccc3)CS[C@H]12 [CEPHALORIDINE] was run?
A: DILI positive (test set)

Q: For CC(C(=O)O)c1cccc(C(=O)c2ccccc2)c1 (stereo not drawn) [KETOPROFEN], which Hepatotoxicity is on record?
A: DILI negative (test set)

Q: CC[C@H](C)[C@H](N)C1=N[C@H](C(=O)N[C@@H](CC(C)C)C(=O)N[C@H](CCC(=O)O)C(=O)N[C@H](C(=O)N[C@H]2CCCCNC(=O)[C@H](CC(N)=O)NC(=O)[C@@H](CC(=O)O)NC(=O)[C@H](Cc3cnc[nH]3)NC(=O)[C@@H](Cc3ccccc3)NC(=O)[C@H]([C@@H](C)CC)NC(=O)[C@@H](CCCN)NC2=O)[C@@H](C)CC)CS1 [BACITRACIN] (HELM PEPTIDE1{[CC[C@H](C)[C@H](N)C1=N[C@H](C(=O)[*:2])CS1].L.[dE].I.K.[NCCC[C@@H](N[*:1])C(=O)[*:2]].I.[dF].H.[dD].N}$PEPTIDE1,PEPTIDE1,5:R3-11:R2$$$V2.0) was tested. Which Hepatotoxicity did it give?
A: DILI negative (training set)

Q: Which Hepatotoxicity does the source give for O=P1(NCCCl)OCCCN1CCCl (stereo not drawn) [IFOSFAMIDE] here?
A: DILI positive (test set)

Q: C[C@H](C(=O)O)c1ccc2oc(-c3ccc(F)cc3)nc2c1 [FLUNOXAPROFEN] was tested. Which Hepatotoxicity did it give?
A: DILI negative (test set)

Q: CN(C)N=O [N-NITROSODIMETHYLAMINE] was tested. Which Hepatotoxicity did it give?
A: DILI positive (test set)

Q: With Cc1cc(C2CCCCC2)n(O)c(=O)c1 [CICLOPIROX] as the compound, how does the Hepatotoxicity read?
A: DILI negative (training set)

Q: For O=C1OC(c2ccc(O)c(S(=O)(=O)O)c2)(c2ccc(O)c(S(=O)(=O)O)c2)c2c(Br)c(Br)c(Br)c(Br)c21 [SULFOBROMOPHTHALEIN], which Hepatotoxicity is on record?
A: DILI positive (test set)

Q: How did the Hepatotoxicity turn out when CN1Cc2c(N)cccc2C(c2ccccc2)C1 (stereo not drawn) [NOMIFENSINE] was run?
A: DILI positive (training set)

Q: Which Hepatotoxicity does the source give for ClC(Cl)(Cl)Cl [CARBON TETRACHLORIDE] here?
A: DILI positive (test set)

Q: For O=C(O)COc1ccc(C(=O)c2cccs2)c(Cl)c1Cl, which Hepatotoxicity is on record?
A: DILI positive (test set)

Q: Which Hepatotoxicity does the source give for COC(=O)Nc1nc2ccc(C(=O)c3cccs3)cc2[nH]1 [NOCODAZOLE] here?
A: DILI negative (training set)

Q: For CC(=O)c1ccc(S(=O)(=O)NC(=O)NC2CCCCC2)cc1 [ACETOHEXAMIDE], which Hepatotoxicity is on record?
A: DILI positive (training set)

Q: For CC(=O)N(O)CCCCCNC(=O)CCC(=O)N(O)CCCCCNC(=O)CCC(=O)N(O)CCCCCN.CS(=O)(=O)O [DEFEROXAMINE MESYLATE], which Hepatotoxicity is on record?
A: DILI positive (training set)

Q: Which Hepatotoxicity does the source give for Oc1ncnc2[nH]ncc12 [ALLOPURINOL] here?
A: DILI positive (training set)

Q: With C[C@@H](CO)NC(=O)[C@@H]1C=C2c3cccc4[nH]cc(c34)C[C@H]2N(C)C1.O=C(O)/C=C\C(=O)O [ERGONOVINE MALEATE] as the compound, how does the Hepatotoxicity read?
A: DILI negative (training set)

Q: Which Hepatotoxicity does the source give for CN(C)CCN(Cc1ccccc1)c1ccccn1.Cl [TRIPELENNAMINE HYDROCHLORIDE] here?
A: DILI positive (test set)

Q: Which Hepatotoxicity does the source give for Cc1ccccc1C(OCCN(C)C)c1ccccc1.O=C(O)CC(O)(CC(=O)O)C(=O)O (stereo not drawn) [ORPHENADRINE CITRATE] here?
A: DILI negative (training set)

Q: With Clc1ccc(COC(Cn2ccnc2)c2ccc(Cl)cc2Cl)c(Cl)c1 (stereo not drawn) [MICONAZOLE] as the compound, how does the Hepatotoxicity read?
A: DILI negative (training set)

Same assay, conditions: Liver

Q: For C=C1CC[C@H](O)C/C1=C/C=C1\CCC[C@]2(C)[C@@H]([C@H](C)/C=C/[C@H](C)C(C)C)CC[C@@H]12 [ERGOCALCIFEROL], which Hepatotoxicity is on record?
A: DILI negative (training set)

Q: How did the Hepatotoxicity turn out when Cc1cccc(Nc2ccccc2C(=O)O)c1C [MEFENAMIC ACID] was run?
A: DILI positive (training set)

Q: Which Hepatotoxicity does the source give for Oc1ncc(N(CCCl)CCCl)c(O)n1 [URACIL MUSTARD] here?
A: DILI positive (test set)

Q: COc1cc(Cc2cnc(N)nc2N)cc(OC)c1OC [TRIMETHOPRIM] was tested. Which Hepatotoxicity did it give?
A: DILI positive (test set)

Q: Which Hepatotoxicity does the source give for O=C(O)c1cc(-c2ccc(F)cc2F)ccc1O [DIFLUNISAL] here?
A: DILI positive (training set)

Q: Which Hepatotoxicity does the source give for O=P1(N(CCCl)CCCl)NCCCO1 (stereo not drawn) [CYCLOPHOSPHAMIDE ANHYDROUS] here?
A: DILI positive (training set)

Q: Which Hepatotoxicity does the source give for O=C1CN(/N=C/c2ccc([N+](=O)[O-])o2)C(=O)N1 [NITROFURANTOIN] here?
A: DILI positive (test set)

Q: CO[C@H]1/C=C/O[C@@]2(C)Oc3c(C)c(O)c4c(c3C2=O)C2=NC3(CCN(CC(C)C)CC3)NC2=C(NC(=O)/C(C)=C\C=C\[C@H](C)[C@H](O)[C@@H](C)[C@@H](O)[C@@H](C)[C@H](OC(C)=O)[C@@H]1C)C4=O [RIFABUTIN] was tested. Which Hepatotoxicity did it give?
A: DILI positive (test set)

Q: How did the Hepatotoxicity turn out when CC1(C)S[C@@H]2[C@H](NC(=O)[C@H](NC(=O)N3CCN(S(C)(=O)=O)C3=O)c3ccccc3)C(=O)N2[C@H]1C(=O)[O-].[Na+] [MEZLOCILLIN SODIUM] was run?
A: DILI positive (test set)

Q: COc1ccc2cc([C@H](C)C(=O)O)ccc2c1 [NAPROXEN] was tested. Which Hepatotoxicity did it give?
A: DILI negative (test set)

Q: For Cn1cnc([N+](=O)[O-])c1Sc1ncnc2nc[nH]c12 [AZATHIOPRINE], which Hepatotoxicity is on record?
A: DILI positive (training set)
